# Data as given in patent US8815590B2, “Composition and method for differentiation of human embryonic stem cells” (Stem Cells for Safer Medicines Limited, priority 2009, dated 2014).
# Test system: Human ESCs [SHEF3]
# Experiment: Differentiation towards definitive endoderm: immunostaining and RT-PCR of endodermal markers
# Type: cell-based
# Settings: 2 μM
# Procedure: Human ESCs [SHEF3] were maintained feeder-free on Matrigel® in chemically defined mTeSR1® media and treated with 2 μM 1M for the days indicated. (A) Expression of the endodermal markers FoxA2, Sox17 and HNF4α were analysed by immunofluorescence. Treatment with compound 1M led to expression of all markers after 7 days treatment. Scale bar represents 50 μm. (B) ESCs were harvested on day 7 following treatment with 1M for the indicated days. RNA was extracted and RT-PCR analyses performed using primers selective for the genes indicated. […] (C) BIO induces differentiation towards the DE. SHEF3 ESCs were treated with 2 μM BIO for the times indicated and immunostained with antibodies towards the endodermal markers FOXA2, SOX17 and HNF4α. (D) Compound 1L also induces differentiation towards the DE. SHEF1 ESCs were treated with 2 μM 1L for the times indicated and immunostained with antibodies towards the endodermal markers FOXA2 and HNF4α.
# ESCs were cultured feeder-free on Matrigel®-coated plates in mTeSR1® media, supplemented with 2 μM compound 1M for 7 days with the media being refreshed every-other day. Definitive endoderm cultures were passaged with collagenase (1 mg/ml) and plated at a ratio of 1:10 on Matrigel® in KO DMEM supplemented with glutamine, penicillin/streptomycin, NEAA, 2% (v/v) KOSR, 10 ng/ml HGF (Peprotech) and 10 ng/ml FGF4 and cultured for a further 7 days with the media being refreshed every-other day. To allow for maturation of the HLCs, 10 ng/ml oncostatin M (Peprotech) and 10^−7 dexamethasone (SIGMA) were added to the above media and the cells were cultured for an additional 7 days with fresh media every-other day.
# Total RNA was isolated and purified using TRIzol Reagent (Invitrogen), following the manufacturer's instructions. All RNA samples were treated with DNase I (Ambion) before cDNA synthesis to eliminate any contaminating genomic DNA. RNA (1 μg) was reverse transcribed into cDNA using Oligo(dT)15 (Promega) and SuperScript II (Invitrogen). Gene-specific PCR was carried out using primers and annealing temperatures outlined in Table 2.
# ESCs were cultured on Matrigel®-coated lummox (Greiner Bio One) trays and fixed with 4% paraformaldehyde (PFA) for 20 minutes at room temperature. Cells were permeabilised in PBST (with 0.1% Triton X-100) and blocked in 10% blocking reagent (Roche) before incubating with primary antibodies in 2% blocking reagent overnight at 4° C. After washing in PBS, cells were incubated with FITC-conjugated secondary antibodies (Vector Labs) for 3 hours at room temperature. After further washing, the cells were stained with 4,6-diamidino-2-phenylindole (DAPI) (SIGMA), washed again and mounted in MOWIOL. […]
smiles,measurement,setting,value
O=C1NC(=O)C2=C1c1cn(c3ccccc13)CCOCCOCCOCCOCCn1cc2c2ccccc21 [1M],"Differentiation towards the DE (immunostaining FOXA2, SOX17, HNF4α)","feeder-free on Matrigel in mTeSR1, up to 7 days",differentiating towards the DE in a time dependent manner
same,Expression of HNF4α and AFP (early hepatic lineage),following 7 days treatment,expression of HNF4α and α-fetoprotein (AFP) was observed
